Measurements taken from ChEMBL document CHEMBL2034954, “Synthesis and antimycobacterial activity of novel 1,3-dimethylisocyanurate derivatives” (Eur J Med Chem, 2012).
≈ marks a conversion by molar mass, not a printed value. Calls of active or inactive are those of the source. The calls are words filed in the database; no cut-off is given here.

Columns and labels:
[1] = test system: Mycobacterium tuberculosis; test: Bacteriostatic activity against Mycobacterium tuberculosis H37Rv at 1 ug/mL assessed as growth index after 10 days by radiometric growth assay (reference value: 210 growth index); format: functional
[2] = test system: Mycobacterium tuberculosis; test: Bacteriostatic activity against Mycobacterium tuberculosis H37Rv at 1 ug/mL assessed as growth index after 7 days by radiometric growth assay (reference value: 210 growth index); format: functional
[3] = test system: Mycobacterium tuberculosis; test: Bacteriostatic activity against Mycobacterium tuberculosis H37Rv at 1 ug/mL assessed as growth index after 3 days by radiometric growth assay (reference value: 210 growth index); format: functional
[4] = test system: Mycobacterium tuberculosis; test: Antitubercular activity against Mycobacterium tuberculosis H37Rv after […] by radiometric growth assay; format: functional
[5] = test system: Mycobacterium tuberculosis; test: Bacteriostatic activity against Mycobacterium tuberculosis H37Rv at 1 ug/mL assessed as growth index after 5 days by radiometric growth assay (reference value: 210 growth index); format: functional
[6] = test system: Mycobacterium tuberculosis; test: Bacteriostatic activity against Mycobacterium tuberculosis H37Rv at 1 ug/mL assessed as growth index after 4 days by radiometric growth assay (reference value: 210 growth index); format: functional
[7] = test system: Mycobacterium tuberculosis; test: Bacteriostatic activity against Mycobacterium tuberculosis H37Rv at 0.5 ug/mL assessed as growth index after 3 days by radiometric growth assay (reference value: 210 growth index); format: functional
[8] = test system: Mycobacterium tuberculosis; test: Bacteriostatic activity against Mycobacterium tuberculosis H37Rv at 0.1 ug/mL assessed as growth index after 4 days by radiometric growth assay (reference value: 210 growth index); format: functional
[9] = test system: Mycobacterium tuberculosis; test: Bacteriostatic activity against Mycobacterium tuberculosis H37Rv at 0.5 ug/mL assessed as growth index after 4 days by radiometric growth assay (reference value: 210 growth index); format: functional
[10] = test system: Mycobacterium tuberculosis; test: Bacteriostatic activity against Mycobacterium tuberculosis H37Rv at 0.5 ug/mL assessed as growth index after 5 days by radiometric growth assay (reference value: 210 growth index); format: functional
[11] = test system: Mycobacterium tuberculosis; test: Bacteriostatic activity against Mycobacterium tuberculosis H37Rv at 0.5 ug/mL assessed as growth index after 7 days by radiometric growth assay (reference value: 210 growth index); format: functional
[12] = test system: Mycobacterium tuberculosis; test: Bacteriostatic activity against Mycobacterium tuberculosis H37Rv at 0.1 ug/mL assessed as growth index after 3 days by radiometric growth assay (reference value: 210 growth index); format: functional
[13] = test system: Mycobacterium tuberculosis; test: Bacteriostatic activity against Mycobacterium tuberculosis H37Rv at 0.1 ug/mL assessed as growth index after 5 days by radiometric growth assay (reference value: 210 growth index); format: functional
[14] = test system: Mycobacterium tuberculosis; test: Bacteriostatic activity against Mycobacterium tuberculosis H37Rv at 0.5 ug/mL assessed as growth index after 10 days by radiometric growth assay (reference value: 210 growth index); format: functional
[15] = test system: Mycobacterium tuberculosis; test: Bacteriostatic activity against Mycobacterium tuberculosis H37Rv at 0.1 ug/mL assessed as growth index after 7 days by radiometric growth assay (reference value: 210 growth index); format: functional
[16] = test system: Mycobacterium tuberculosis; test: Antitubercular activity against Mycobacterium tuberculosis H37Rv at 1 ug/mL by radiometric growth assay; format: functional, organism-based
[17] = test system: Mycobacterium tuberculosis; test: Antitubercular activity against Mycobacterium tuberculosis H37Rv at 10 ug/mL by radiometric growth assay; format: functional, organism-based
[18] = test system: Mycobacterium tuberculosis; test: Bacteriostatic activity against Mycobacterium tuberculosis H37Rv at 25 ug/mL assessed as growth index after 3 days by radiometric growth assay (reference value: 210 growth index); format: functional
[19] = test system: Mycobacterium tuberculosis; test: Antitubercular activity against Mycobacterium tuberculosis H37Rv at 40 ug/mL by radiometric growth assay; format: functional, organism-based
[20] = test system: Mycobacterium tuberculosis; test: Antitubercular activity against Mycobacterium tuberculosis H37Rv at 80 ug/mL by radiometric growth assay; format: functional, organism-based

Compound	Growth_index [1]	Growth_index [2]	Growth_index [3]	MIC [4] [µg/mL]	Growth_index [5]	Growth_index [6]	further results
Cn1c(=O)n(C)c(=O)n(CCCCS(=O)(=O)CC(=O)NN)c1=O	>90	73	18	1 (≈ 2.86 µM)	73	34	–
Cn1c(=O)n(C)c(=O)n(C[S+]([O-])CC(N)=O)c1=O (stereo not drawn)	–	–	–	0.1 (≈ 0.362 µM)	–	–	Growth_index [7]: 32; Growth_index [8]: 30; Growth_index [9]: 50; Growth_index [10]: 50; Growth_index [11]: 50; Growth_index [12]: 30; Growth_index [13]: 36; Growth_index [14]: 50; Growth_index [15]: >90
Cn1c(=O)n(C)c(=O)n(CCCCC[S+]([O-])CC(N)=O)c1=O (stereo not drawn)	–	>90	12	0.1 (≈ 0.301 µM)	30	30	Growth_index [7]: 26; Growth_index [8]: 27; Growth_index [9]: 37; Growth_index [10]: 38; Growth_index [11]: 50; Growth_index [12]: 23; Growth_index [13]: 30; Growth_index [14]: 60; Growth_index [15]: >90
NNC(=O)c1ccncc1 [ISONIAZID]	–	–	–	0.1 (≈ 0.729 µM)	–	–	Activity [16]: Active; Activity [17]: Active
C=CCn1c(=O)n(CC=C)c(=O)n(CC(O)CS(=O)(=O)CC(=O)NN)c1=O (stereo not drawn)	–	–	–	0.1 (≈ 0.248 µM)	–	–	–
Cn1c(=O)n(C)c(=O)n(CCCS(=O)(=O)CC(=O)NN)c1=O	55	55	5	1 (≈ 2.98 µM)	55	18	Growth_index [7]: 15; Growth_index [9]: 30; Growth_index [10]: >90
Cn1c(=O)n(C)c(=O)n(CC[S+]([O-])CC(=O)NN)c1=O (stereo not drawn)	50	50	10	0.5 (≈ 1.64 µM)	40	22	Growth_index [7]: 30; Growth_index [9]: >90
Cn1c(=O)n(C)c(=O)n(CCC[S+]([O-])CC(N)=O)c1=O (stereo not drawn)	–	–	7	1 (≈ 3.29 µM)	>90	41	–
Cn1c(=O)n(C)c(=O)n(CCCCCCS(=O)(=O)CC(N)=O)c1=O	–	>90	5	1 (≈ 2.76 µM)	53	23	–
Cn1c(=O)n(C)c(=O)n(CCS(=O)(=O)CC(N)=O)c1=O	–	–	–	25 (≈ 81.6 µM)	–	–	Growth_index [18]: >90
CO[C@H]1/C=C/O[C@@]2(C)Oc3c(C)c(O)c4c(O)c(c(/C=N/N5CCN(C)CC5)c(O)c4c3C2=O)NC(=O)/C(C)=C\C=C\[C@H](C)[C@H](O)[C@@H](C)[C@@H](O)[C@@H](C)[C@H](OC(C)=O)[C@@H]1C	–	–	–	–	–	–	Activity [19]: Active; Activity [20]: Active
Cn1c(=O)n(C)c(=O)n(CC(O)CS(=O)(=O)CC(=O)NN)c1=O (stereo not drawn)	35	35	1	0.1 (≈ 0.285 µM)	30	25	–
Cn1c(=O)n(C)c(=O)n(CC[S+]([O-])CC(N)=O)c1=O (stereo not drawn)	–	–	–	10 (≈ 34.4 µM)	–	–	Growth_index [18]: >90
Cn1c(=O)n(C)c(=O)n(CCCCCCCCCC[S+]([O-])CC(=O)NN)c1=O (stereo not drawn)	22	22	0	0.5 (≈ 1.2 µM)	22	20	–
